Data set [1] relates to pyocyanin production in PA14 wt. Kind of data set: Pyocyanin assay in PA14 wt. The class given is cell-based. The following applies: Pseudomonas aeruginosa, PA14, read-out: IC50 pyocyanin. How it is done:
The pyocyanin inhibitory effect of the synthesized compounds and the compound (4) loaded SqNPs on PA14 wt were investigated by pyocyanin assay as described in previous work.[2,5] Briefly, PA14 wt was grown in PPGAS medium, overnight, at 37 °C, shaking at 200 rpm. The bacterial suspension was then centrifuged at 7.450 g, washed twice and diluted to a final OD600 (absorption at 600 nm) of 0.02 (2∙10^7 CFU/mL) in fresh PPGAS. 1.5 mL of the […]
(1 picture or pasted object on this page, not shown here) […]
culture was distributed in each well of the 24 well-plate. The free synthesized QSI prepared in DMSO, compound (4) loaded SqNPs were supplemented to bacteria-containing wells (1:100 dilutions). PA14 wt treated with either PBS or drug-free SqNPs (200 μg/mL) served as controls. Following 16 h incubation under aerobic conditions, pyocyanin in 900 μL of bacteria culture was extracted with chloroform and re-extracted with 0.2 M HCl. Pyocyanin production level was measured as the absorption at 520 nm, which was normalized to cell growth measured as OD600. 0.2 M HCl served as blank samples. Three independent experiments were conducted in triplicate. Non-linear regression analysis was performed using […]
(4) loaded SqNPs on PA14 wt. The pyocyanin inhibitory efficacy was improved by a factor of […]
It is noted that as reported in our prior
Figure S2. The production of pyocyanin levels compared to control PA14 wide type (wt) of the samples treated with 200 μg/mL drug free SqNPs. Three independent experiments were conducted in triplicate. […]
(also on this page, place not known: ( 4) -containing -free bacteria re -extracted compo und ( 4) (IC 50 nM ) (IC 50 nM ). drug P A14 5,6,7,8 -tetradeutero-2-heptyl-4(1H)-quinolone standa rd -40 -20 0 20 40 60 80 100 120 0.005 0.05 0.5 pyo production inhibition [%] Compound concentration loaded SqNPs [µM] IC50 = 100 ± 0.018 [nM])

Data set [2] deals with AR. Kind of data set: CEREP off-target panel, agonist radioligand. In kind it is binding. The following applies: @10µM. How it is done: (§1) 5. In vitro ADME/T and Safety Pharmacology
(§2) 5.1. CEREP off-targets assay
(§3) Experiments towards possible off-target effects were conducted following Eurofins Discovery protocol. Detailed information about the assays can be found in: https://www.eurofinsdiscoveryservices.com/catalogmanagement/viewitem/SafetyScreen44- […]
(§4) Table S3. Possible CEREP off-targets. entry off-target QSI 4 QSI 17 Assay
(§5) (%binding (%binding method
(§6) (1 picture or pasted object on this page, not shown here)

Data set [3] has as its target T1, 5-HT2A (Homo sapiens, UniProt P28223).
T1 construct: Eurofins Discovery (SafetyScreen44 Panel, Cerep) P270
Kind of data set: CEREP off-target panel, agonist radioligand. In kind it is binding. The settings on record: @10µM. Here is the method: as §1, §2, §3, §4, §5, §6

Data set [4] addresses T2, 5-HT2B (Homo sapiens, UniProt P41595).
T2 construct: Eurofins Discovery (SafetyScreen44 Panel, Cerep) P270
In words: CEREP off-target panel, agonist radioligand. In kind it is binding. The following applies: @10µM. How it is done: as §1, §2, §3, §4, §5, §6

Data set [5] is described as follows: Metabolic stability, human liver S9. In kind it is in vitro ADME. How it is done: For the evaluation of combined phase I and phase II metabolic stability, the compound (1 μM) was incubated with 1 mg/mL pooled liver S9 fraction from the respective species (Xenotech), […]
2 mM NADPH, 1 mM UDPGA, 10 mM MgCl2, 5 mM GSH and 0.1 mM PAPS at 37 °C for […]
0, 5, 15, 30 or 60 min. The metabolic stability of Testosterone (1 μM) and verapamil (1 μM) […]
were determined in parallel to confirm the enzymatic activity of the S9 fraction. The […]
incubation was stopped by precipitation of S9 enzymes with 2 volumes of cold acetonitrile […]
containing internal standard (750 nM Diphenhydramine). Samples were stored on ice for 10 […]
min and precipitated protein was removed by centrifugation (10 min, 4 °C, 17,000 g).
Concentration of the remaining test compound at the different time points was analyzed by […]
LC-MS/MS (TSQ Quantum Access MAX, Thermo Fisher, Dreieich, Germany) and used to […]
determine half-life (t1/2). Stability of compound 4 in further S9 fractions are summarized in […]
Table S4. Metabolic stability studies in various S9 fractions. […]

Data set [6] concerns planktonic PA14 wt. Kind of data set: MIC assay, microbroth dilution. In kind it is cell-based. The following applies: Pseudomonas aeruginosa. Here is the method:
composed of 15.5 g/L LB agar, 10 g/L peptone, 5 g/L NaCl and 5 g/L yeast extract, the resulting solution was sterilized before being plated.
The minimum inhibitory concentration […] of drug-free SqNPs, compound 4 prepared either in dimethyl sulfoxide (DMSO) or loaded in SqNPs, free Tob, Tob-loaded SqNPs, and Tob and compound 4 co-loaded SqNPs against planktonic PA14 wt were determined by standard microbroth dilution assays in 96-well plates. PA14 wt suspension was prepared from mid-log cultures in PPGAS medium and diluted to OD600 (absorption at 600 nm) 0.02 (2∙10^7 CFU/mL (CFU, colony-forming units)). PBS served as a control. Following 16 h incubation […]
nm) that were measured using a Tecan microplate reader Infinite M200Pro (Tecan, Crailsheim, Germany). The IC90 values are concentrations at which the growth of bacteria is inhibited by 90%. Three independent experiments were conducted in triplicate. Results are […]
Table S2. MIC assay against PA14 wt. Three independent experiments were conducted in triplicate.
Samples MIC (IC90 value) against PA14 wt
Drug-free SqNPs > 200 µg/mL
Compound (4) prepared in DMSO > 20 µM
Compound (4)-loaded SqNPs > 20 µM (a)
Tob loaded SqNPs 3.125 – 6.25 µg/mL (b)
Tob and compound (4) co-loaded SqNPs 3.125 – 6.25 µg/mL (b)
((4) concentration 20 µM)
(a) Compound (4) concentration
4.3. Minimum Biofilm Eradicating Concentration (MBEC) assay
Chemical and biological materials for in vitro assays. All chemicals were purchased from Sigma-Aldrich unless otherwise specified. Yeast extract was obtained from Fluka. Bacto™ Tryptone were obtained from BD Biosciences. Luria Bertani (LB) agar was obtained from Carl Roth. Gibco® PBS was obtained from Life Technologies. Purified water was prepared by a Milli-Q water purification system (Merk Millipore, Billerica, MA). The PA strain PA14
(Broth dilution looks for growth in wells or tubes with falling amounts of substance.)

[7] abbreviates: pooled human liver S9 fraction, Table 2, read-out: Metabolic stability t 1/2 S9 human.

Like-named read-outs stand apart in the source and are kept apart here.

T1 sequence (P28223 whole entry): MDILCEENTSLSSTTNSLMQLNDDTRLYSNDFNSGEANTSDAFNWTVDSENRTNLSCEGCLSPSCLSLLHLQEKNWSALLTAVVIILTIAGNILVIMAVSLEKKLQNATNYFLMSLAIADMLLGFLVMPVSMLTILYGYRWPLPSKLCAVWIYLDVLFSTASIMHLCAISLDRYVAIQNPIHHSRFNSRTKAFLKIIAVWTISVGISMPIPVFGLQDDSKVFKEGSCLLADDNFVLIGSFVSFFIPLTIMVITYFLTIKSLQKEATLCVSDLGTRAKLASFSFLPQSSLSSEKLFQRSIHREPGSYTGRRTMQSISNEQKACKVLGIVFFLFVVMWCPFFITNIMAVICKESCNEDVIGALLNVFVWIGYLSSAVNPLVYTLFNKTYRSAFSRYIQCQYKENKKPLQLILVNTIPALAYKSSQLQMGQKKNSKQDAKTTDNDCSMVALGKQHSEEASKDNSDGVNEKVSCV
T2 sequence (P41595 whole entry): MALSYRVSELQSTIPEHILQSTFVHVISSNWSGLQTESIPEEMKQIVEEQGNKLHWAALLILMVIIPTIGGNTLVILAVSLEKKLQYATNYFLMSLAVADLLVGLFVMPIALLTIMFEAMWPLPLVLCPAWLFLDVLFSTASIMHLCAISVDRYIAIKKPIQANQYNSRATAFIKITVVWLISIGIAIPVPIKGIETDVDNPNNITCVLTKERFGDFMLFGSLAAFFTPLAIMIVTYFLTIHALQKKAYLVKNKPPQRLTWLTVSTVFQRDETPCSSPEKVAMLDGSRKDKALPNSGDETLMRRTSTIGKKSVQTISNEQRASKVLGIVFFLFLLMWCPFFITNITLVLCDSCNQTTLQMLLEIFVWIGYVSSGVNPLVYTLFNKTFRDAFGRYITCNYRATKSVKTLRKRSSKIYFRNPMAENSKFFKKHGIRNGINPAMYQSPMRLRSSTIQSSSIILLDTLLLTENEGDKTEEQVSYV

As to `COc1ccc(-n2cc(CNc3ccnc(C(F)(F)F)c3)nn2)cc1Cl` [Compound 17], the IC50 (commonly the concentration needed to halve the response being measured) in data set [1] came out at 350 nM. In addition, in data set [2], the “% binding, AR” value turned out to be 57.04%. Moreover, the “% binding, 5-HT2A” value in data set [3] amounted to 22.02%. The “% binding, 5-HT2B” value in data set [4] was determined as 73.79%. In addition, the half-life at 1 μM in data set [5] (setting [7]) stood at 0.7 h.

For the compound `NC[C@H]1O[C@H](O[C@H]2[C@H](O)[C@@H](O[C@H]3O[C@H](CO)[C@@H](O)[C@H](N)[C@H]3O)[C@H](N)C[C@@H]2N)[C@H](N)C[C@@H]1O` [Tobramycin, tobramycin], the minimal inhibitory concentration (MIC) (in general, the smallest concentration in the dilution series that meets the test's criterion for growth inhibition) in data set [6] (PA14, Tob concentration, 16 h, read-out: MIC (IC90 value) against PA14 wt) lay in the range of 3.12 to 6.25 µg/mL; in data set [6] (PA14 wt, read-out: MIC in the planktonic setting) it was 3.12 to 6.25 µg/mL.

For the compound `FC(F)(F)c1cc(NCc2cn(-c3ccc(Oc4ccccc4)cc3)nn2)ccn1` [Compound 4], the IC50 in data set [1] came to 199 nM. Further, in data set [2], the “% binding, AR” value is listed as -10.10%. Besides, in data set [3], the “% binding, 5-HT2A” value stood at 65.15%. In addition, the “% binding, 5-HT2B” value in data set [4] was determined as 55.25%. The minimal inhibitory concentration (MIC) in data set [6] (PA14, compound (4) concentration, 16 h, read-out: MIC (IC90 value) against PA14 wt) was greater than 20 µM. For the same compound, the half-life at 1 μM in data set [5] (setting [7]) worked out at 2.82 h; in data set [5] (pooled liver S9 fraction, Table S4, read-out: t1/2 human liver S9) it was 1.13 ± 0.15 h.

The values above are taken from paper PMC8224453, “A New PqsR Inverse Agonist Potentiates Tobramycin Efficacy to Eradicate Pseudomonas aeruginosa Biofilms” (Advanced Science, 2021).
